Measured values: patent US20250144099A1, “INK4 TUMOR SUPPRESSOR PROTEINS MEDIATE RESISTANCE TO CDK4/6 KINASE INHIBITORS” (MEMORIAL SLOAN-KETTERING CANCER CENTER, priority 2021, published 2025)
“Also recorded” adds a separate entry of the source.

Columns and labels:
phosphorylation of Rb = experiment: Immunoblotting of Rb phosphorylation in cells; type: cell-based, human; settings: FAT1 loss / CDK6-high CDK4/6i-resistant MCF7 cells
Experimental: (§1) Cell lysates were collected in RIPA buffer (Thermo Fisher Scientific) supplemented with protease and phosphatase inhibitors (Pierce). Protein concentration was quantified by using the BCA kit (Fisher Scientific). […] of protein lysates were loaded onto 4-12% SDS-PAGE gels (Invitrogen) for electrophoresis and transferred onto nitrocellular membranes. Blots were blocked with Intercept™ (TBS) Blocking Buffer (LI-COR Bioscience #927-60001) and incubated with primary antibody at 4° C. overnight. Secondary antibodies conjugated with fluorescence (LI-COR Bioscience #926-68071 and #926-32210) were incubated for 1 h at room temperature and blots were scanned by Odyssey Clx Imaging System from LI-COR Bioscience.

CDK4 = target: T1, CDK4 (Homo sapiens, UniProt P11802); experiment: Immunoblotting of CDK4 degradation in cells; type: cell-based
T1 construct: CDK4 and CDK6 were immunoprecipitated from isogenic drug sensitive (MCF7 parental cells with low CDK6); endogenous in cells; host or cells: MCF-7 parental and MCF-7 FAT1 CRISPR knockout (CDK6-high) cells
Experimental: as §1

[1] = tested on: prostate cancer cell 22RV1; experiment: Colony formation assay; type: cell-based; settings: 21 days treatment
[2] = tested on: T47D parental and CDK6-overexpressing cells; experiment: Cell proliferation assay; type: cell-based, human; settings: recorded at day 3, day 5 and day 7
Experimental: Cell viability was measured by Resazurin (R&D Systems, Minneapolis, MN, USA) as described previously (51). Briefly, 1,500 cells were seeded in a 96-well plate and allowed to recover overnight. Cells were treated with drugs at day 0. Resazurin was added to the cells 4 hours prior to the measurements on day 3, day 5 and day 7. Fluorescent intensity was measured using a microplate reader (SpectraMax M5, Molecular Devices, Sunnyvale, CA, USA). IC50 was calculated by GraphPad Prism 7.0 using a sigmoidal regression model.

MOLT4 cells = experiment: Global quantitative mass spectrometry proteomics; type: cell-based, human; settings: 250 nM, 5 h
Experimental: Molt4 cells were treated with 250 nM of compounds BSJ-05-017 or BSJ-03-096 (singlicate) or DMSO control (biological triplicate) for 5 hours. Cells were harvested by centrifugation and prepared for mass spectrometry as described previously (28). Data were collected as reported (28). LC-MS data were analyzed using Proteome Discoverer 2.4 (Thermo Fisher Scientific), as previously described (28). Reporter ion intensities were normalized and scaled using in-house scripts in the R framework (63). Statistical analysis was carried out using the limma package within the R framework (64).

[3] = tested on: patient-derived xenograft models; experiment: Patient-derived xenograft tumor growth; type: in vivo, mice; settings: two patient-derived xenograft models; ribociclib at clinical equivalent dose
CDK6 = CDK6 (Homo sapiens, UniProt Q00534); experiment: Immunoblotting of CDK6 degradation in cells; type: cell-based; parameters: MCF7 cells that lost FAT1 expression and with high CDK6 expression; endogenous in cells; host or cells: MCF-7 FAT1 loss cells (also MCF-7 parental)
Experimental: as §1

CDK6-high cells = experiment: Senescence Green flow cytometry assay; type: cell-based, human; settings: 8 days; BSJ-05-017 500 nM, abemaciclib 100 nM, palbociclib 500 nM
Experimental: Senescence analysis. […] Cells were harvested using trypsin/EDTA, then stained with the CellEvent Senescence Green Flow Cytometry Assay Kit (Invitrogen) according to the manufacturer's instructions. Briefly, cells were fixed with 2% paraformaldehyde for 15 min at room temperature and stained with the CellEvent Senescence Green Probe for 2 hours at 37° C. without CO2. After incubation, cells were washed with PBS 3 times and resuspended in FACS buffer (PBS with 2% FBS) for analysis on BD Biosciences LSR Fortessa using a 488 nm laser and 530 nm/30 filter (BD Biosciences). Data analysis was performed with FCS Express 7 (De Novo Software).

[4] = tested on: shPTEN (PTEN loss) xenografts; experiment: Efficacy study, cell-derived xenograft; type: in vivo, NSG mice; settings: BSJ-05-017 50 mg/kg i.p., BSJ-03-096 50 mg/kg p.o., 25-35 days
Experimental: (§2) Efficacy study. NOD.Cg-Prkdc Il2rg<tm1Wjl>/SzJ (NSG) mice were obtained from the Jackson Laboratory (Stock #: 005557). Each mouse was injected with MCF7 parental, CDK6-ovexpressing or PTEN loss cells subcutaneously 1 week after the implantation of estradiol pellets (25 mg). […] Tumor volumes were recorded every 3-4 days. Mice were sacrificed if tumors reached 1000 mm^3 or at the end of the experiment. Tumors were collected and processed as described above.

[5] = tested on: CDK6-overexpressing xenografts; experiment: Efficacy study, cell-derived xenograft; type: in vivo, NSG mice; settings: BSJ-05-017 50 mg/kg i.p., BSJ-03-096 50 mg/kg p.o., 25-35 days
Experimental: as §2

[6] = tested on: MCF7 parental cell-derived xenografts; experiment: Efficacy study, cell-derived xenograft; type: in vivo, NSG mice; settings: ribociclib 25 mg/kg p.o., BSJ-05-017 50 mg/kg i.p., BSJ-03-096 50 mg/kg p.o., 25-35 days
Experimental: as §2

[7] = tested on: CDK6-high (FAT-1 loss) tumors; experiment: Pharmacodynamic study in tumor-bearing mice (immunoblotting of tumors); type: in vivo, NSG mice; settings: 25 mg/kg i.p., 3 consecutive days, tumors collected at 6 h
Experimental: Pharmacodynamic study. NOD.Cg-Prkdc Il2rg<tm1Wjl>/SzJ (NSG) mice were obtained from the Jackson Laboratory (Stock #: 005557). Each mouse was injected with FAT1 loss cells subcutaneously 1 week after the implantation of estradiol pellets (25 mg). After the tumors reached 200 mm^3, mice were treated for 3 consecutive days with BSJ-05-017 at 25 mg/kg. Tumors were collected at 6 h. Lysates were prepared by homogenization in SDS-lysis buffer (˜1 ml/mg tissue) (50 mM Tris-HCl pH 7.4, 2% SDS) and boiled for 10 min, followed by brief sonication as described previously (65). Lysates were cleared by centrifugation at 14,000 g for 10 min and the supernatant was collected for western blotting.

[8] = FAT1 loss / CDK6-high CDK4/6i-resistant MCF7 cells, 24 h treatment
[9] = MCF7 cells with overexpression of CDK6

Sequence of CDK6 (Q00534 whole entry): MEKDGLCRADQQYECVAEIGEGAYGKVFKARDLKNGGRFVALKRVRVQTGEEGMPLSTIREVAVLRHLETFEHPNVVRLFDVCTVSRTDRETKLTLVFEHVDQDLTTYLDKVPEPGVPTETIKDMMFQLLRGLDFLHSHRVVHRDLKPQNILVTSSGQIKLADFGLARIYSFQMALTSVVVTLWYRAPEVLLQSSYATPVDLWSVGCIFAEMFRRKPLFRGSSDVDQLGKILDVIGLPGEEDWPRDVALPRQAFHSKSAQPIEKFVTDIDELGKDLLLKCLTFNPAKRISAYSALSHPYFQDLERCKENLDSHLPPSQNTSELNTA
T1 sequence (P11802 whole entry): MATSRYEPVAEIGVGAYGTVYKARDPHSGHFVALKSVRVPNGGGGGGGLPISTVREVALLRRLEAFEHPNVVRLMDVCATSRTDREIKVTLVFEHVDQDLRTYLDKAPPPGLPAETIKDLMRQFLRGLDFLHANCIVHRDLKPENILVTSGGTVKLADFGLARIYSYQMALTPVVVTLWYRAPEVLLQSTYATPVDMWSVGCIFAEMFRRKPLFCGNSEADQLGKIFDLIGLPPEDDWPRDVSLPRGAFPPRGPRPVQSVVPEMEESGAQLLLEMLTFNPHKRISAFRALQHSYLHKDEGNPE
T1 sequence (P24385 whole entry partner): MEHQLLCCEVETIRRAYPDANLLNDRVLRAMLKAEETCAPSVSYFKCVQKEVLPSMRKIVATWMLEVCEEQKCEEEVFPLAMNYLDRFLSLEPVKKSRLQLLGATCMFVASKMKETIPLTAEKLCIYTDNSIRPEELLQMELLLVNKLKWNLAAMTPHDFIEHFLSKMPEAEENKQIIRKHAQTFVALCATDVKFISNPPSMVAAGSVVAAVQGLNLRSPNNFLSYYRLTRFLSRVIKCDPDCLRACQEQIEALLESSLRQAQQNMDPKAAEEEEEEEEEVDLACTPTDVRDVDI

For `CC(=O)c1c(C)c2cnc(Nc3ccc(N4CCN(CCCCC(=O)N[C@H](C(=O)N5C[C@H](O)C[C@H]5C(=O)N[C@@H](C)c5ccc(-c6scnc6C)cc5)C(C)(C)C)CC4)cn3)nc2n(C2CCCC2)c1=O` [BSJ-05-017, (2S,4R)-1-((S)-2-(5-(4-(6-((6-acetyl-8-cyclopentyl-5-methyl-7-oxo-7,8-dihydropyrido[2,3-d]pyrimidin-2-yl)amino)pyridin-3-yl)piperazin-1-yl)pentanamido)-3,3-dimethylbutanoyl)-4-hydroxy-N—((S)-1-(4-(4-methylthiazol-5-yl)phenyl)ethyl)pyrrolidine-2-carboxamide], the “inhibition of phosphorylation of Rb (and downstream E2F1/cyclin A2)” value (phosphorylation of Rb) was “effective inhibition of the phosphorylation of Rb”, the “degradation of CDK4” value (CDK4; [8]) was “most significant degradation of both CDK4 and CDK6; also recorded: high potency in degrading CDK4 and CDK6” and the “degradation of CDK4” value (CDK4; [9]) was “effectively degrade CDK4 and CDK6”. The colony formation [1] was “more sensitive to BSJ-05-017 than to palbociclib”, the “inhibition of cell growth” value [2] was “inhibits the growth of both T47D parental and CDK6-overexpressing cells” and the “selectivity in global proteomics” value (MOLT4 cells) was “highly selective for CDK4 and CDK6”. For the same compound, the “inhibition of tumor growth” value [3] was “effective in inhibiting tumor growth”, the “degradation of CDK6” value (CDK6; [8]) was “most significant degradation of both CDK4 and CDK6; also recorded: high potency in degrading CDK4 and CDK6” and the “degradation of CDK6” value (CDK6; [9]) was “effectively degrade CDK4 and CDK6”. The senescence-marker positive cells (CDK6-high cells) was “significantly higher number of cells into senescence compared with abemaciclib or palbociclib”, the “durable tumor inhibition (percent)” value [4] was roughly 47.4% and the “durable tumor inhibition (percent)” value [5] was −64.9%. For the same compound, the tumor response [6] was “sensitive”, the “Rb1 phosphorylation and E2F1 expression in tumors” value [7] was “significant suppression of Rb1 phosphorylation and E2F1 expression” and the “degradation of CDK4 and CDK6 in tumors” value [7] was “near complete degradation of CDK4 and CDK6”.
